Experimental data: publication PMC11595864, “Design, Synthesis, and Evaluation of Novel Thiazole-Containing Algicides Inspired by Bacillamide A” (Marine Drugs, 2024)
Values after ≈ are worked out from the molar mass of the structure shown. Blank lines part the entries; values can stand above or below the compound they belong to.

How the values were obtained:
S. costatum [1] = experiment: Algicidal activity assay, EC50; type: cell-based, Skeletonema costatum; conditions: for EC50: Skeletonema costatum, Mean ± SD, n = 3, read-out: EC50 S. costatum
Method: (§1) P. minimum, A. pacificum, and S. costatum were purchased from Guangyu Biological Technology Co., Ltd. (Shanghai, China). The algae strain was cultured in F/2 medium ((12 h light: 12 h dark cycle), 20 ± 1 °C, 70 μmol m^−2 s^−1). Purchased algae were transferred to sterile conical flasks for culture; after the algae proliferation was stabilized, the expanded culture was next carried out following standard conditions.
(§2) Copper sulfate and Diuron were used as the positive controls. EC50 values were calculated according to the equation of the quantity–effect relationship in Equation (2) using the Hill model of Graph Pad Prism software (8.0.2). (2) Y=Bottom+(Top-Bottom)/1+10^(Log EC50-X)×Hill Slope
(§3) The X and Y values represent the concentration (mg/L) and response values of the control and experimental groups, respectively. The Top, Bottom, and Hill Slope represent the maximum response, minimum response, and the curve slope, respectively. The EC50 represents half of the maximum effective concentration.

A. pacificum [2] = experiment: Algicidal activity assay, EC50; type: cell-based, Alexandrium pacificum; conditions: for EC50: Alexandrium pacificum, Mean ± SD, n = 3
Method: as §1, §2, §3

P. minimum [3] = experiment: Algicidal activity assay, EC50; type: cell-based, Prorocentrum minimum; conditions: for EC50: Prorocentrum minimum, Mean ± SD, n = 3, read-out: EC50 P. minimum
Method: as §1, §2, §3

S. costatum [4] = experiment: Growth-inhibition rate measurement at 50 mg/L, 24 h; type: cell-based, Skeletonema costatum; conditions: for inhibition at 50 µg/mL: Skeletonema costatum, read-out: inhibition rate against S. costatum
Method: as §1
(§4) The stock solutions of bacillamide A and different BDs were prepared in dimethyl sulfoxide (DMSO) with the requisition amount. […] The controls received the same volume of DMSO. The inhibitory activities of bacillamide A, different BDs, and positive controls were screened by 96 well microtiter plates at different concentrations. Inhibition ratios (IRs) of cupric sulfate (50 mg/L, positive control), bacillamide A (50 mg/L), and BDs (50 mg/L) were calculated on algae using Equation (1). (1) IR=Cc0-Cex/Cc0×100%
(§5) The CC0 and Cex, respectively, represent the algal densities of the control and experimental groups.

A. pacificum [5] = experiment: as above; type: cell-based, Alexandrium pacificum; conditions: Alexandrium pacificum, read-out: inhibition rate against A. pacificum
Method: as §1, §4, §5

zebrafish = experiment: Zebrafish acute toxicity assay; type: in vivo; conditions: for Survival percent: zebrafish
Method: Zebrafish acute toxicity of bacillamide A and synthesized BDs were evaluated at 0.1 mg/L, 1 mg/L, and 10 mg/L, respectively. Diuron and CuSO4 were used as positive controls. The commercial zebrafish (body length > 3.0 cm) were domesticated in aerated tap water for 24 h, fed once daily for seven consecutive days, and stopped being fed before the experiment.
4. Acute toxicity table S1.
Compound Concentration Survival percent Acute
aAccording to the Guide for Environmental Safety Assessment of Chemical Pesticides
4 groups and treated with different compounds for 96 h.

P. minimum [6] = experiment: Growth-inhibition rate measurement at 50 mg/L, 24 h; type: cell-based, Prorocentrum minimum; conditions: Prorocentrum minimum, read-out: inhibition rate against P. minimum
Method: as §1, §4, §5

S. costatum [7] = experiment: Observation of cellular morphology (optical microscope, SEM); type: cell-based, Skeletonema costatum; conditions: 10 mg/L, 4 h
Method: (§6) There were morphological changes of algae cells treated by bacillamide A, BDs, and the positive control (CuSO4). […] Cell samples were centrifuged at 12,000 rpm for 10 min, collected, fixed, gradient-dehydrated, and freeze-dried after gold coating following the reported procedure. The SEM analyses were performed by scanning electron microscopy (SEM, JSM-7900F, […], Tokyo, Japan).

P. minimum [8] = experiment: as above; type: cell-based, Prorocentrum minimum; conditions: 10 mg/L, 4 h
Method: as §6

A. pacificum [9] = experiment: Observation of cellular morphology (optical microscope); type: cell-based, Alexandrium pacificum; conditions: 10 mg/L, 4 h
PSII in P. minimum = experiment: Quantum yield Fv/Fm of PSII; type: cell-based, Prorocentrum minimum; conditions: 10 mg/L, 72 h, versus negative control
Method: (§7) P. minimum, S. costatum, and A. pacificum cells were cultured in F/2 medium. All flasks were cultivated under 12 h of light: 12 h of dark and 70 μmol m^−2 s^−1 at 20 ± 1 °C. […] Finally, the algal cells were collected and diluted in 6 mL of phosphate buffer (pH = 7.8). A small amount of quartz sand was added into the algal cells under ice bath. The obtained homogenate was next poured into a centrifuge tube and centrifuged at 5000 r/min for 25 min at 4 °C. The obtained supernatant was placed in the refrigerator at 4 °C for the next step experiment.
(§8) Fv/Fm values were determined by using AquaPen handheld algae fluorescence meter (Nanjing Mingao Instrument Co., Ltd., Nanjing, China). The algae cells were darkened for 30 min and Fv/Fm values were measured.

PSII in S. costatum = experiment: Quantum yield Fv/Fm of PSII; type: cell-based, Skeletonema costatum; conditions: 10 mg/L, 72 h, versus negative control
Method: as §7, §8

P. minimum [10] = experiment: ROS level (DCFH-DA fluorescent probe assay); type: cell-based, Prorocentrum minimum; conditions: 10 mg/L, 72 h
Method: as §7
(§9) The reactive oxygen species (ROS) assay kit was purchased from SolarBio Co., Ltd., Beijing, China. The 2′,7′-dichlorodihydrofluorescein diacetate (DCFH-DA) could be oxidized by reactive oxygen or nitrogen species (ROS/RNS) to generate high fluorescent 2′,7′-dichlorofluoroscein (DCF). DCF could be detected by Cyto-FLEX flow cytometry.

S. costatum [11] = experiment: ROS level (DCFH-DA fluorescent probe assay); type: cell-based, Skeletonema costatum; conditions: 10 mg/L, 72 h
Method: as §7, §9

P. minimum [12] = experiment: MDA level (thiobarbituric acid assay kit); type: cell-based, Prorocentrum minimum; conditions: 10 mg/L, 72 h, versus control (DMSO)
Method: as §7
(§10) The malondialdehyde (MDA) assay kit was purchased from Lvyuandade Biochemical Co, Ltd., Beijing, China. The MDA parameter was monitored according to the procedure provided by the manufacturer. A total of 1 mL of algal extract was mixed with thiobarbituric acid solution (2 mL, 0.6%). The solution was sealed and kept in a boiling water bath for 15 min, followed by being cooled and centrifuged at 4500 r/min for 10 min. The absorbance values of collected supernatant were measured and calculated by the Formula (3) at 600 nm, 532 nm, and 450 nm:MDA content (nmol∙mgprot^−1) = 6.45 × (A532 − A600) − 0.56 × A450(3)

S. costatum [13] = experiment: MDA level (thiobarbituric acid assay kit); type: cell-based, Skeletonema costatum; conditions: 10 mg/L, 72 h, versus control (DMSO)
Method: as §7, §10

Structure (SMILES): O=C(NCCc1c[nH]c2ccccc12)c1csc(-c2ccccc2)n1 [Compound 6a]
EC50 (S. costatum [1]): 0.11 ± 0.02 µg/mL (≈ 0.317 µM)
fold more potent than CuSO4 (S. costatum [1]; from EC50 against S. costatum): 28 fold
fold more potent than Diuron (S. costatum [1]; from EC50 against S. costatum): 39 fold
fold more potent than bacillamide A (S. costatum [1]; from EC50 against S. costatum): 23 fold
EC50 (A. pacificum [2]): 3.32 ± 0.79 µg/mL (≈ 9.56 µM)
EC50 (P. minimum [3]): 1.74 ± 0.4 µg/mL (≈ 5.01 µM)
inhibition at 50 µg/mL (S. costatum [4]): > 70%
inhibition at 50 µg/mL (A. pacificum [5]): 70 to 95%
Survival percent (zebrafish; 0.1 mg/L, 0h): 100
Survival percent (zebrafish; 0.1 mg/L, 24h): 100
Survival percent (zebrafish; 0.1 mg/L, 48h): 100
Survival percent (zebrafish; 0.1 mg/L, 72h): 100
Survival percent (zebrafish; 0.1 mg/L, 96h): 100
Survival percent (zebrafish; 1 mg/L, 0h): 100
Survival percent (zebrafish; 1 mg/L, 24h): 83
Survival percent (zebrafish; 1 mg/L, 48h): 80
Survival percent (zebrafish; 1 mg/L, 72h): 80
Survival percent (zebrafish; 1 mg/L, 96h): 73
Survival percent (zebrafish; 10 mg/L, 0h): 100
Survival percent (zebrafish; 10 mg/L, 24h): 0
Survival percent (zebrafish; 10 mg/L, 48h): 0
Survival percent (zebrafish; 10 mg/L, 72h): 0
Survival percent (zebrafish; 10 mg/L, 96h): 0

melting point: 122 to 123 °C
Structure (SMILES): O=C(NCCc1c[nH]c2ccccc12)c1csc(-c2ccccc2[N+](=O)[O-])n1 [Compound 6b]

Structure (SMILES): CCOc1ccc(-c2nc(C(=O)NCCc3c[nH]c4ccccc34)cs2)cc1 [Compound 6c]
EC50 (S. costatum [1]): 0.51 ± 0.04 µg/mL (≈ 1.3 µM)
EC50 (A. pacificum [2]): 2.43 ± 0.42 µg/mL (≈ 6.21 µM)
EC50 (P. minimum [3]): 1.29 ± 0.08 µg/mL (≈ 3.3 µM)
inhibition rate against S. costatum (S. costatum [4]): 72.6%
inhibition at 50 µg/mL (S. costatum [4]): > 70%
inhibition at 50 µg/mL (P. minimum [6]): 70.8%
melting point: 184 to 185 °C

melting point: 189 to 190 °C
Structure (SMILES): O=C(NCCc1c[nH]c2ccccc12)c1csc(-c2cccs2)n1 [Compound 6e]

Structure (SMILES): CCCCc1nc(C(=O)NCCc2c[nH]c3ccccc23)cs1 [Compound 6j]
EC50 (S. costatum [1]): 0.3 ± 0.02 µg/mL (≈ 0.916 µM)
EC50 (A. pacificum [2]): 0.47 ± 0.25 µg/mL (≈ 1.44 µM)
fold more potent than natural bacillamide A, Diuron, and CuSO4 (A. pacificum [2]; from EC50 against A. pacificum): 3–5 fold
EC50 (P. minimum [3]): 1 ± 0.11 µg/mL (≈ 3.05 µM)
fold more potent than natural bacillamide A, Diuron, and CuSO4 (P. minimum [3]; from EC50 against P. minimum): 3–5 fold
inhibition rate against S. costatum (S. costatum [4]): 81.7%
inhibition at 50 µg/mL (S. costatum [4]): > 70%
inhibition at 50 µg/mL (P. minimum [6]): 71.9%
inhibition at 50 µg/mL (A. pacificum [5]): 70 to 95%
mortality in zebrafish (zebrafish; 10 mg/L, treatment for more than 48 h): 100%
Survival percent (zebrafish; 0.1 mg/L, 0h): 100
Survival percent (zebrafish; 0.1 mg/L, 24h): 100
Survival percent (zebrafish; 0.1 mg/L, 48h): 100
Survival percent (zebrafish; 0.1 mg/L, 72h): 100
Survival percent (zebrafish; 0.1 mg/L, 96h): 100
Survival percent (zebrafish; 1 mg/L, 0h): 100
Survival percent (zebrafish; 1 mg/L, 24h): 100
Survival percent (zebrafish; 1 mg/L, 48h): 100
Survival percent (zebrafish; 1 mg/L, 72h): 80
Survival percent (zebrafish; 1 mg/L, 96h): 80
Survival percent (zebrafish; 10 mg/L, 0h): 100
Survival percent (zebrafish; 10 mg/L, 24h): 80
Survival percent (zebrafish; 10 mg/L, 48h): 0
Survival percent (zebrafish; 10 mg/L, 72h): 0
Survival percent (zebrafish; 10 mg/L, 96h): 0
cell morphology of S. costatum, micrographs (S. costatum [7]): broken or damaged or both
cell morphology of P. minimum, micrographs (P. minimum [8]): broken or damaged or both
cell morphology of A. pacificum, micrographs (A. pacificum [9]): broken or damaged or both
decrease of Fv/Fm of PSII in P. minimum (PSII in P. minimum): 3 fold
decrease of quantum yield Fv/Fm of PSII in S. costatum (PSII in S. costatum): 27 fold
increase of ROS levels in P. minimum (P. minimum [10]): 5.4 fold
increase of ROS levels in S. costatum (S. costatum [11]): 3 fold
increase of MDA levels in P. minimum (P. minimum [12]): 2.3 fold
increase of MDA levels in S. costatum (S. costatum [13]): 2.2 fold

Structure (SMILES): COc1ccc2[nH]cc(CCNC(=O)c3csc(-c4ccccc4)n3)c2c1 [Compound 7b]
EC50 (S. costatum [1]): 0.37 ± 0.07 µg/mL (≈ 0.98 µM)
EC50 (A. pacificum [2]): 0.72 ± 0.021 µg/mL (≈ 1.91 µM)
EC50 (P. minimum [3]): 1.32 ± 0.38 µg/mL (≈ 3.5 µM)
inhibition at 50 µg/mL (P. minimum [6]): 82.3%
melting point: 164 to 165 °C
